Measurements as given in ChEMBL document CHEMBL1201862, “PubChem BioAssay data set” (2004).
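Interpolation was linear, between the two tested concentrations surrounding the appropriate level; five concentrations were tested over 48 hours in 96-well plates. Abbreviation: GI50, concentration required for 50% inhibition of growth.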 Calls of active or inactive are those of the source. No stated cut-off is given here; in the data, active = GI50 up to about 1.1 µM and inactive = higher.

What was measured:
Test in all cases: NCI anticancer screen, dose series, 48 h
786-0 = system: 786-0
A498 = system: A498
A549 = system: A549
ACHN = system: ACHN
BT-549 = system: BT-549
CAKI-1 = system: CAKI-1
CCRF-CEM = system: CCRF-CEM
COLO 205 = system: COLO 205
DU-145 = system: DU-145
EKVX = system: EKVX
HCC 2998 = system: HCC 2998
HCT-116 = system: HCT-116
HCT-15 = system: HCT-15
HL-60 = system: HL-60
HOP-62 = system: HOP-62
HOP-92 = system: HOP-92
HT-29 = system: HT-29
Hs-578T = system: Hs-578T
IGROV-1 = system: IGROV-1
K562 = system: K562
KM12 = system: KM12
LOX IMVI = system: LOX IMVI
M14 = system: M14
MCF7 = system: MCF7
MDA-MB-231 = system: MDA-MB-231
MDA-MB-435 = system: MDA-MB-435
MDA-N = system: MDA-N
MOLT-4 = system: MOLT-4
Malme-3M = system: Malme-3M
NCI-H23 = system: NCI-H23
NCI-H460 = system: NCI-H460
NCI-H522 = system: NCI-H522
NCI/ADR-RES = system: NCI/ADR-RES
OVCAR-3 = system: OVCAR-3
OVCAR-5 = system: OVCAR-5
OVCAR-8 = system: OVCAR-8
PC-3 = system: PC-3
RPMI-8226 = system: RPMI-8226
RXF 393 = system: RXF 393
SF-268 = system: SF-268
SF-295 = system: SF-295
SF-539 = system: SF-539
SK-MEL-28 = system: SK-MEL-28
SK-MEL-2 = system: SK-MEL-2
SK-MEL-5 = system: SK-MEL-5
SK-OV-3 = system: SK-OV-3
SN12C = system: SN12C
SNB-19 = system: SNB-19
SNB-75 = system: SNB-75
SR = system: SR
SW-620 = system: SW-620
T47D = system: T47D
TK-10 = system: TK-10
U-251 = system: U-251
UACC-257 = system: UACC-257
UACC-62 = system: UACC-62
UO-31 = system: UO-31

Structure (SMILES): O=C1CC(Br)c2c(Cl)sc(Cl)c21 (configuration not stated)
- GI50 (786-0): 3.04 µM (inactive)
- GI50 (A498): 20.3 µM (inactive)
- GI50 (A549): 18.3 µM (inactive)
- GI50 (ACHN): 12.2 µM (inactive)
- GI50 (BT-549): 20.8 µM (inactive)
- GI50 (CAKI-1): 3.1 µM (inactive)
- GI50 (CCRF-CEM): 0.403 µM (active)
- GI50 (COLO 205): 12.1 µM (inactive)
- GI50 (DU-145): 17 µM (inactive)
- GI50 (EKVX): 17.5 µM (inactive)
- GI50 (HCC 2998): 12 µM (inactive)
- GI50 (HCT-116): 4.56 µM (inactive)
- GI50 (HCT-15): 8.07 µM
- GI50 (HL-60): 2.13 µM (inactive)
- GI50 (HOP-62): 6.01 µM (inactive)
- GI50 (HOP-92): 15.1 µM (inactive)
- GI50 (HT-29): 11.4 µM (inactive)
- GI50 (Hs-578T): 16.5 µM (inactive)
- GI50 (IGROV-1): 11.4 µM (inactive)
- GI50 (K562): 2.17 µM (inactive)
- GI50 (KM12): 6.58 µM (inactive)
- GI50 (LOX IMVI): 1.94 µM (inactive)
- GI50 (M14): 9.75 µM (inactive)
- GI50 (MCF7): 3.66 µM (inactive)
- GI50 (MDA-MB-231): 9.98 µM (inactive)
- GI50 (MDA-MB-435): 2.39 µM (inactive)
- GI50 (MDA-N): 3.21 µM (inactive)
- GI50 (MOLT-4): 1.94 µM (inactive)
- GI50 (Malme-3M): 12.1 µM (inactive)
- GI50 (NCI-H23): 16.4 µM (inactive)
- GI50 (NCI-H460): 18.2 µM (inactive)
- GI50 (NCI-H522): 17 µM (inactive)
- GI50 (NCI/ADR-RES): 24 µM (inactive)
- GI50 (OVCAR-3): 2.38 µM (inactive)
- GI50 (OVCAR-5): 18 µM (inactive)
- GI50 (OVCAR-8): 3.1 µM (inactive)
- GI50 (PC-3): 10.8 µM (inactive)
- GI50 (RPMI-8226): 1.43 µM (inactive)
- GI50 (RXF 393): 2.39 µM (inactive)
- GI50 (SF-268): 6.58 µM (inactive)
- GI50 (SF-295): 16.4 µM (inactive)
- GI50 (SF-539): 8.3 µM (inactive)
- GI50 (SK-MEL-28): 13.6 µM (inactive)
- GI50 (SK-MEL-2): 15.8 µM (inactive)
- GI50 (SK-MEL-5): 17.6 µM (inactive)
- GI50 (SK-OV-3): 16.7 µM (inactive)
- GI50 (SN12C): 14.1 µM (inactive)
- GI50 (SNB-19): 19.3 µM (inactive)
- GI50 (SNB-75): 15.2 µM (inactive)
- GI50 (SR): 3.89 µM (inactive)
- GI50 (SW-620): 1.84 µM (inactive)
- GI50 (T47D): 4.18 µM (inactive)
- GI50 (TK-10): 2.54 µM (inactive)
- GI50 (U-251): 3.37 µM (inactive)
- GI50 (UACC-257): 4 µM (inactive)
- GI50 (UACC-62): 11.8 µM (inactive)
- GI50 (UO-31): 4.06 µM (inactive)
